# Test results published in paper PMC7156612, “Olinciguat, an Oral sGC Stimulator, Exhibits Diverse Pharmacology Across Preclinical Models of Cardiovascular, Metabolic, Renal, and Inflammatory Disease” (Frontiers in Pharmacology, 2020).
# Several values for one entry are separate records, joined by “and”; a condition that tells them apart may be missing. Equal values may be shown once. Read-outs that look alike come from different tables or passages of the source.
# Assays:
# [1] = tested on: spontaneously hypertensive rats (SHR); assay: Arterial hemodynamics by telemetry in spontaneously hypertensive rats; assay type: in vivo, rat
# Method: (§1) The Dataquest A.R.T.™ acquisition and analysis system (Data Sciences International [DSI], St. Paul, MN) was employed to monitor and analyze hemodynamic data from conscious, freely moving rats surgically implanted with a telemetry pressure transmitter (PA-C40). Telemetry transmitter implantation was performed on rats under sterile conditions. Rats were anesthetized with isoflurane and body temperature was maintained with a heating pad during surgery. A laparotomy was performed to expose the abdominal aorta. The catheter tip of the telemetry transmitter was inserted into the abdominal aorta and secured with a 5-0 silk suture (Ethicon, Inc., Somerville, NJ). The abdominal incision was closed with uninterrupted suture (4-0 silk, Ethicon, Inc., Somerville, NJ) and the telemetry transmitter was placed in the abdominal cavity and secured to the abdominal wall. Approximately 100 µl of 0.25% marcaine was applied directly to the closed abdominal wall, and the skin was then closed with suture (4-0 Vicryl® absorbable, Ethicon, Inc., Somerville, NJ). Buprenorphine (0.05 mg/kg/day, subcutaneous [s.c.]) was administered immediately after the surgery for postoperative pain relief. After recovery from anesthesia, rats were returned to their home cages, placed on DSI receivers, and allowed a 5- to 14-day recovery period. Arterial hemodynamics were measured continuously and recorded throughout the study. For acute studies, analysis was based on hourly averages, for chronic studies, analysis was based on daily or weekly averages.
# (§2) Spontaneously hypertensive rats (SHRs) (n=6, male, 230–250 g, 14 weeks of age) and Wistar rats (n=6, male, 230–250 g, 12 weeks of age) were implanted with telemetry transmitters as described above. Olinciguat was formulated as a suspension in a vehicle containing 0.5% methylcellulose and 0.2% Tween. Rats were p.o. dosed with a dosing volume of 5 ml/kg. […] Using plasma from tail vein, olinciguat plasma concentrations were determined at 1, 6, and 24 h post-dose on day 4 and reported as the mean from Wistar (n=3) and SHR (n=3). Hemodynamics were recorded hourly during a 24-h baseline period and over the first 3 days of dosing.
# (§3) Maximum change from baseline of mean arterial pressure (MAP) was calculated using the 24-h pre-first dose average subtracted from the lowest MAP value recorded within 2 h following dosing. The 1-h post-dose change from baseline heart rate (HR) was calculated using the 3-h pre-first dose average subtracted from the 1-h post-dose average.
# (§4) In the hemodynamic study in Wistar and SHR, hourly MAP data were analyzed using a repeated measures two-way ANOVA, with time and treatment group as independent variables. Significance at each timepoint was determined as compared to the vehicle control using a Dunnett's post-hoc test.
# [2] = Mass balance/excretion of [14C]-olinciguat in rats; assay type: in vivo, rat; details: male Sprague-Dawley rats, single oral dose 3 mg/kg; for equivalents excreted in the feces, percent of administered dose: 3 mg/kg
# Method: [^14C]-olinciguat, uniformly labeled with [^14C] in the fluorobenzyl ring and having a specific activity of 110 mCi/mmol, was synthesized at American Radiolabeled Chemicals, Inc. (St. Louis, MO). The radiochemical purity was determined to be >99%. Four male Sprague-Dawley rats (approximately 8 weeks old) received a single p.o. dose of 3 mg/kg [^14C]-olinciguat (specific activity 26.6 µCi/mg) in PEG 400:water 60:40 v/v (dosing volume ≤5 ml/kg). Using a single metabolism cage (Nalgene) for each rat, urine and feces were collected for 7 days at 24-h intervals, and cages were rinsed daily. Food was available ad libitum throughout the study, except for the overnight fasting period (16–18 h) before and 4 h after olinciguat administration. Deionized water was available ad libitum. After 7 days, tissues were collected. Urine, feces, liver, kidneys, and cage washes were analyzed to determine material balance.
# [3] = Olinciguat plasma concentration in hemodynamic study (pooled Wistar and SHR); assay type: in vivo, rat; details: for concentration at 1 h: male, Wistar and SHR (spontaneously hypertensive rat), pooled, rat, plasma, oral, mean and SEM of 6 animals (n=3 Wistar, n=3 SHR), read-out: average plasma concentration 1 h after dosing on Day 4
# Method: Blood from i.v. and p.o. dosed rats was collected at 16 timepoints (2 groups of rats, 8 timepoints per group) over 24 h. Samples were collected into potassium ethylenediamine tetraacetic acid (K2EDTA) tubes, centrifuged (3,500 rpm for 10 min) to yield plasma. In the pharmacokinetic studies and in all in vivo studies, olinciguat plasma concentrations were determined by LC-MS/MS. Pharmacokinetic (PK) parameters were calculated by noncompartmental analysis using sparse sampling in Phoenix® WinNonLin® v.6.3 (Certara, Princeton, NJ).
# Spontaneously hypertensive rats (SHRs) (n=6, male, 230–250 g, 14 weeks of age) and Wistar rats (n=6, male, 230–250 g, 12 weeks of age) were implanted with telemetry transmitters as described above. Olinciguat was formulated as a suspension in a vehicle containing 0.5% methylcellulose and 0.2% Tween. Rats were p.o. dosed with a dosing volume of 5 ml/kg. In a weekly-dose escalation design, rats were administered vehicle (week 1), olinciguat 1 mg/kg (week 2), 3 mg/kg (week 3), and 10 mg/kg (week 4). For each dose level, rats were dosed once daily (QD) for 4 days. Using plasma from tail vein, olinciguat plasma concentrations were determined at 1, 6, and 24 h post-dose on day 4 and reported as the mean from Wistar (n=3) and SHR (n=3). Hemodynamics were recorded hourly during a 24-h baseline period and over the first 3 days of dosing.
# [4] = design: method as in Mittleman et al., 2017; details: healthy human subjects, ref Mittleman et al., 2017, cited from earlier work
# [5] = tested on: normotensive Wistar rats; assay: Arterial hemodynamics by telemetry in normotensive Wistar rats; assay type: in vivo, rat
# Method: as §1, §2, §3, §4
# [6] = Rat post-myocardial infarction model; assay type: in vivo; details: male, Sprague-Dawley, rat, plasma, oral; MI rats, 30 mg/kg/day in chow; read-out: olinciguat plasma concentration at week 8
# Method: (§5) Male Sprague-Dawley rats (n = 24, 270–330 g) were studied. MI was induced by permanent ligation of the left anterior descending (LAD) coronary artery. Briefly, after anesthesia with 5% isoflurane, rats were intubated and ventilated using a small animal ventilator (Model 683, Harvard Apparatus). Surgery was performed under sterile conditions. Briefly, the heart was exposed through left thoracotomy, the pericardium was incised, and the LAD coronary artery was ligated with 4-0 silk suture (Ethicon, Inc.). The lungs were inflated, and the chest wall was closed in three layers. Approximately 100 µl of 0.25% marcaine was applied directly to the edge of the skin incision. Long-acting buprenorphine (1 mg/kg/day, s.c.) was administered after the surgery for postoperative pain relief. Sham-operated rats underwent the same procedure without ligation of the LAD.
# (§6) Treatment was initiated within 24 h following surgery. The Sham and MI control groups were maintained on chow for the entire 8-week treatment period. Rats in the MI + olinciguat group received olinciguat in chow at the targeted dose of 30 mg/kg/day for the entire 8-week treatment period. Ejection fraction (EF) was measured at week 8 by echocardiography using the long axis view of the left ventricle in B-mode.
# (§7) In the post-MI study, data were analyzed by one-way ANOVA, followed by Dunnett's multiple comparison to the MI group.
# [7] = tested on: Sprague-Dawley rats with LAD ligation (post-MI); assay: Rat post-myocardial infarction model; assay type: in vivo; details: 30 mg/kg/day, total plasma concentration x 1.0% free
# Method: as §5, §6, §7
# [8] = 10 mg/kg p.o. QD, day 3, 10 mg/kg
smiles,measurement,setting,value
"NC(=O)[C@](O)(CNc1nc(-c2cc(-c3ccon3)n(Cc3ccccc3F)n2)ncc1F)C(F)(F)F [olinciguat, (R)-3,3,3-trifluoro-2-(((5-fluoro-2-(1-(2-fluorobenzyl)-5-(isoxazol-3-yl)-1H-pyrazol-3-yl)pyrimidin-4-yl)amino)methyl)-2-hydroxypropanamide]",MAP vs vehicle-treated rats,[1]; 1 mg/kg p.o. QD,only lower than vehicle-treated rats on the third day of dosing
same,MAP vs vehicle-treated rats,"[1]; 3 mg/kg p.o. QD, 6-h period following dosing on all 3 days",significantly lower than vehicle-treated rats
same,MAP vs vehicle-treated rats,"[1]; 10 mg/kg p.o. QD, 6-h period following dosing on all 3 days",significantly lower than vehicle-treated rats
same,maximum absolute change in MAP,[1]; [8],−26 ± 2 mmHg and −26^b mmHg
same,administered dose radioactivity recovered in feces and urine within the first 48 h,[2],95%
same,"equivalents excreted in the urine, percent of administered dose",[2]; over 7 days,5.7%
same,"equivalents excreted in the feces, percent of administered dose",[2]; over 7 days,> 95%
same,"equivalents excreted in the feces, percent of administered dose","[2]; over 7 days, listed as [^14C]-olinciguat",95.3%
same,Olinciguat concentration (free),"[3]; 10 mg/kg, pooled samples from Wistar and SHR, total plasma concentration x 1.0% free","1.6–3.3 nM^a,e"
same,concentration at 1 h,[3]; 1 mg/kg p.o. QD,57.3 ± 38.7 nM
same,concentration at 1 h,[3]; 3 mg/kg p.o. QD,132 ± 30 nM
same,concentration at 1 h,[3]; 10 mg/kg p.o. QD,245 ± 86 nM
same,terminal-phase half-life,[4]; repeat dosing with oral tablets,~ 30 h
same,"renal clearance, percent of apparent total body clearance [CL/F]",[4],≤ 0.3%
same,MAP vs vehicle-treated rats,[5]; 1 mg/kg p.o. QD,not significantly different from vehicle at any time
same,MAP vs vehicle-treated rats,[5]; 3 mg/kg p.o. QD,lower only on the second and third day of dosing
same,MAP vs vehicle-treated rats,[5]; 10 mg/kg p.o. QD,lower on all 3 days of dosing
same,maximum absolute change in MAP,[5]; [8],−11 ± 3 mmHg and −11^b mmHg
same,concentration at 8 weeks,[6],167 ± 11 nM
same,Olinciguat concentration (free),[7],1.6–1.8 nM^e
